Like-named read-outs stand apart in the source and are kept apart here. Where a SMILES comes first, the peptide text is derived from it.
Experiments:
[1] = test system: FOXP3-6His (native FOXP3, 1-421); assay: Surface plasmon resonance, peptide binding to FOXP3-coated chip; settings: for FOXP3 binding by SPR (in words): peptides at 2.5 μM, N-terminal acetylation and C-terminal amidation
Protocol: Using truncated versions of FOXP3, we attempted to identify the FOXP3 domain interacting with peptide P60, described previously by or group as a FOXP3 inhibitory peptide. Thus, besides native FOXP3 we prepared the deletion mutants FOXP3 (1-331) (lacking the C-terminus of FOXP3), FOXP3 (177-421) (lacking the N-terminus) and FOXP3 (1-177) (encompassing only the N-terminus of FOXP3) (Figure 1A). They were coated on a chip for SPR experiments.
Screening of peptide binding to FOXP3 was performed by surface plasmon resonance (SPR) using ProteOn XPR36 (Bio-Rad, Hercules CA, USA) optical biosensor. Recombinant protein FOXP3-6His and the indicated truncated versions of FOXP3 were produced and purified from E-coli and immobilized covalently onto a GLM sensor chip (Bio-Rad) using sulfo-NHS and EDC (Bio-Rad) coupling reagents. After protein immobilization, chip surface was treated with ethanolamine to deactivate the excess of reactive esters. Individual peptide solutions (1–20 μM) were injected by triplicate in running buffer (Phosphate buffered saline, 0.005% (v/v) Tween 20, pH 7.4) at a flow of 30 μl/min. The interspot signal (obtained in the chip surface not immobilized with protein) was used as reference.

[2] = test system: murine Treg cells; format: cell-based, BALB/c mice
From the text: Results shown in Figures 1–3 correspond to cell-free assays where peptides can interact directly with its corresponding protein partner. However, FOXP3 binding peptides need to enter into the cell in order to inhibit FOXP3 functions. Once we identified some mutants with higher capacity to bind FOXP3, we studied their capacity to inhibit the suppressor activity of natural Tregs in vitro. Thus, we activated effector T cells with anti-CD3 monoclonal antibody in the presence of Tregs, and analyzed the capacity of each peptide to restore T cell proliferation inhibited by Treg cells. […] Indeed, when results from the point-variant screening are represented as a heat map, it is clear that introduction of an alanine at positions 2, 5 and 11 improved activity of the original P60, whereas alanine mutations at positions 1, 7, 8, 9, 10 and 12 are detrimental (Figure 4C).
Isolation of murine CD4^+CD25^+, and CD4^+CD25^− T-cells was performed from murine spleen cells by using murine regulatory T-cell isolation kit (Miltenyi Biotec, Bergisch Gladbach, Germany) according to manufacturer's instructions. The purity of the resulting T-cell populations was confirmed to be > 95% by flow cytometry.
Inhibition of murine T regulatory cell function was measured in an in vitro assay of T-cell stimulation. CD25+ depleted spleen cells (10^5 cells/well) from BALB/c mice were stimulated in vitro with 2, 5 μg/ml of anti-mouse CD3 antibody (Pharmingen) in the presence/absence of purified Treg cells (10^4 cells/well). T-cell proliferation was measured 3 days later as previously described.

[3] = Metabolic stability in human liver microsomes; format: in vitro ADME; settings: 1 μM, estimated by first order kinetics
Protocol: (§1) Metabolic stability was measured by Wuxi AppTech (Shanghai, China). Briefly, peptides (1 μM, 5% MeOH in potassium phosphate buffer) were incubated with human (catalogue no. 452161 from BD Gentest) and mouse (catalogue no. M1000, Xenotech) liver microsomes at 37°C for 10 min. Liver microsomes were at a final assay concentration of 0.7 mg protein/mL. The reaction was started by the addition of 90 μL of NADP cofactor solution and stopped by the addition of 300 μL of stop solution (acetonitrile at 4°C, including 100 ng/mL tolbutamide as an internal standard) after 20 min of incubation. The samples were shaken for 5 min and then centrifuged for 20 min at 1500 g. A 100 μL aliquot of the supernatant was transferred to eight new 96-well plates with 300 μL of HPLC water and centrifuged at 1500 g for LC-MS/MS analysis (Shimadzu LC 10-AD−API 4000). An injection volume of 10 μL was added to a Phenomenex Synergi C18 column eluting with formic acid in water or acetonitrile at a flow rate of 800 μL/min. The percent loss of parent compound was calculated from the peak area ratio of the analyte/internal standard. Compounds and positive controls were tested in duplicate.

[4] = Metabolic stability in mouse liver microsomes; format: in vitro ADME; settings: 1 μM, estimated by first order kinetics
Protocol: as §1

[5] = test system: Hepa-129 cells; assay: Hepa-129 subcutaneous tumor rejection model; format: in vivo, C3H/HeN mice; settings: Hepa-129 s.c.
Protocol: Seven days after Hepa-129 cells injection, when the tumor reached 5 mm in diameter, mice were treated with CM-1215 (from days 7 to 16, 50μg/day/mouse) or anti-PD1 antibodies (50 μg/mice) at days 7 and 14. A group of mice treated with anti-PD1 received also 10 consecutive i.p. administrations of CM-1215 from days 7 to 16 (50 μg/day/mouse).
For tumor rejection experiments, Hepa-129 cells (10^6 cells/mouse), were injected subcutaneously (sc) in C3H/HeN mice (n = 6). Ten days later, when the tumor reached 5 mm in diameter, mice were randomly divided into different experimental groups. A group of mice were treated i.p. with anti-PD1 antibodies (50 μg/mouse). Antibody administration was repeated one week after this first administration. A group of mice treated with anti-PD1 also received the cyclic peptide CM-1215 from days 10 to 20 (50 μg/mice/day). Tumor size, presented as the average of two perpendicular diameters (millimetres), was measured at regular intervals. Mice were sacrificed when the mean tumor diameter was greater than 20 mm. […] Tumor size was monitored twice a week with a calliper and it was expressed according to the formula V = (length × width^2)/2. […]

[6] = molecular target: T1, FOXP3/AML1 interaction (Homo sapiens, UniProt Q9BZS1); assay: AlphaScreen FOXP3/AML1 heterodimerization assay; format: biochemical
T1 sequence (Q9BZS1 1-431): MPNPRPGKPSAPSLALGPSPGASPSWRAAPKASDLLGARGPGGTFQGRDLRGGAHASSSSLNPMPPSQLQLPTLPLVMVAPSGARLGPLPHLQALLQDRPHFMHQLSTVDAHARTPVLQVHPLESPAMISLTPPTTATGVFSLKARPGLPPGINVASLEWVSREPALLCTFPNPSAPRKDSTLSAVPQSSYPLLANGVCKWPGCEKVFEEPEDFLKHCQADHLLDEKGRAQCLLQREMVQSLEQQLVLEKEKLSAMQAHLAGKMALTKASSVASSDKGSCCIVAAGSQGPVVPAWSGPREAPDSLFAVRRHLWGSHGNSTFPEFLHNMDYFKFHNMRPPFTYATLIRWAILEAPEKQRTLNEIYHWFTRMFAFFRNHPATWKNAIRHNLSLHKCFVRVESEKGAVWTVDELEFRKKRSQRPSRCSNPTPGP
From the text: (§2) AML1 is required for IL-2 and IFN-γ gene expression in conventional CD4+ T cells and its interaction with FOXP3 is needed for the immunosuppressive activity of Tregs. On the other hand, it has been described that the leucine zipper region is necessary and sufficient to mediate FOXP3 homo-dimerization, which is required for its function as a transcriptional regulator [13, 15, 20]. Thus, since P60 binds to this FOXP3 intermediate region, we analyzed if it could act as a decoy molecule to inhibit FOXP3 homodimerization or the FOXP3-AML1 heterodimerization. The capacity of FOXP3 to homodimerize was measured using the […] assay platform AlphaScreen™ (Perkin Elmer). Previous protein-cross titration experiment using different concentrations of FOXP3-6His (from 1000 to 0 nM) and GST-FOXP3 (from 300 to 0 nM) allowed us to define the optimal protein concentrations to analyze FOXP3 homodimerization (Figure 2A). […] We also tested if GST tagged FOXP3 was able to interact with AML1 protein tagged with 6 His at the N-terminus. As shown in the cross titration experiments in Figure 2C, a specific FOXP3-AML1 heterodimerization was visualized as an increase in the AlphaScreen signal.
(§3) FOXP3/AML1 heterodimerization, as well as FOXP3/FOXP3 homodimerization were analyzed by Alphascreen technology according to the manufacturer's instructions (Perkin Elmer, Benelux) as previously described.

[7] = molecular target: T2, FOXP3/FOXP3 homodimerization (GST-FOXP3 and FOXP3-His) (Homo sapiens, UniProt Q9BZS1); assay: AlphaScreen FOXP3 homodimerization assay; format: biochemical; settings: GST-FOXP3 40 nM, FOXP3-His 300 nM
T2 construct: made in house; host or cells: E. coli
T2 sequence (Q9BZS1 1-421): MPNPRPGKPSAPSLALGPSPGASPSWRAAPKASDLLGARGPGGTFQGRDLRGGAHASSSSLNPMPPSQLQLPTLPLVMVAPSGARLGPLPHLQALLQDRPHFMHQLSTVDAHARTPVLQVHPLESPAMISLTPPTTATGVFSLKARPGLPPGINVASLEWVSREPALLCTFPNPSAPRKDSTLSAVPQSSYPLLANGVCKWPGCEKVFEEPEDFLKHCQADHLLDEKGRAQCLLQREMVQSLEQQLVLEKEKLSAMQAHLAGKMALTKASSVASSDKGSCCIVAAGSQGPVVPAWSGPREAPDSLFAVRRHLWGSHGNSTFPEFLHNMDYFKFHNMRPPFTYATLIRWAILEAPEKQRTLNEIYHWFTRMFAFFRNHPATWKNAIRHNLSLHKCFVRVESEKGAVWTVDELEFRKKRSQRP
From the text: as §2, §3

Compound | FOXP3 binding capacity by SPR (in words) ([1]; FOXP3 coated on chip, mutants compared with original P60) | IC50 [2] [nM] | T1/2 [3] [min] | half-life [3] [min] | half-life [4] [min] | Antitumor effect / survival, single agent (in words) ([5]; CM-1215 50μg/day/mouse i.p. days 7 to 16, anti-PD1 50 μg/mice days 7 and 14) | Antitumor activity in combination with anti-PD1 (in words) ([5]; anti-PD1 50 μg days 7 and 14 plus CM-1215 50 μg/day/mouse i.p. days 7 to 16, p < 0.001) | FOXP3 binding by SPR (in words) [1] | Inhibition of FOXP3-AML1 heterodimerization (in words) [6] | Inhibition of FOXP3 homodimerization (in words) [7] | IC50 ([2]; in vitro cell based bioassay, read-out: IC50 to inhibit Treg activity) [nM]
CSCC[C@@H]1NC(=O)[C@H](C)NC(=O)[C@H](Cc2ccccc2)NC(=O)[C@H](Cc2ccccc2)NC(=O)[C@@H]2CCCN2C(=O)[C@H](Cc2c[nH]c3ccccc23)NC(=O)[C@H](CCSC)NC(=O)[C@H](CCCCN)NC(=O)[C@H](CCCNC(=N)N)NC(=O)[C@H](Cc2ccccc2)NC(=O)[C@H](C)NC(=O)[C@H](CCC(N)=O)NC(=O)[C@H](Cc2ccccc2)NC(=O)[C@H](C)NC(=O)[C@H](CCCNC(=N)N)NC1=O [CM-1215] (cyclo(RAFQAFRKMWPFFAM)) | improved very significantly its capacity to bind to FOXP3 | 770 | 5.30 | ~8 | ~8 | some beneficial effect on the percentage of survival, this response did not reach statistical significance | exhibited antitumor activity | – | – | – | –
Ac-RAFQAFRKMWAFFAM-NH2 [P60-D2A-S5A-P11A] | – | 2950 | – | – | – | – | – | improved very significantly the FOXP3 binding capacity | significantly improved the capacity of the original P60 peptide to inhibit this interaction | – | –
Ac-RAFQAFRKMWPFFAM-NH2 [P60-D2A-S5A] | – | 1890 | – | < 2.5 | < 2.5 | – | – | improved FOXP3 binding | significantly improved the capacity of the original P60 peptide to inhibit this interaction | – | –
H-RAFQSFRKMWPFFAM-OH [P60-D2A] | – | – | – | – | – | – | – | – | inhibited | inhibited | 27200

From paper PMC5641083, “Blockage of FOXP3 transcription factor dimerization and FOXP3/AML1 interaction inhibits T regulatory cell activity: sequence optimization of a peptide inhibitor” (Oncotarget, 2017)
